From patent US6893846B2, “Primers for use in detecting beta-lactamases” (priority 1998, dated 2005)
In brackets after ≈: the same amount, converted by molar mass. Where two headings read alike, the source gives them in different places.

Assays:
[1] = tested on: K. pneumoniae 225; test: NCCLS microdilution susceptibility test; assay type: cell-based, Klebsiella pneumoniae; settings: Klebsiella pneumoniae, 225
[2] = tested on: K. pneumoniae 225; test: NCCLS disk diffusion assay; assay type: cell-based, Klebsiella pneumoniae; settings: disk diffusion, Kleb 225
[3] = tested on: K. pneumoniae; test: Agar dilution MIC, South African isolates; assay type: cell-based, Klebsiella pneumoniae; settings: tzp with tazobactam 4 μg/ml
Description: (§1) The strains were provided in response to a request for all strains of Enterobacteriaceae, lacking inducible beta-lactamases, that were intermediate or resistant to cefotaxime or ceftazidime. […]

[4] = tested on: E. coli; test: Agar dilution MIC, South African isolates; assay type: cell-based, Escherichia coli; settings: tzp with tazobactam 4 μg/ml
Description: as §1

[5] = tested on: P. mirabilis; test: Agar dilution MIC, South African isolates; assay type: cell-based, Proteus mirabilis; settings: 4 strains, tzp with tazobactam 4 μg/ml
Description: During a period of three months in 1993, […] strains of Klebsiella pneumoniae (13 blood, 5 burn, 7 wound, 11 tracheal isolates), 4 strains of Proteus mirabilis (all wound isolates) and 4 strains of Escherichia coli (1 blood, 1 burn, 2 wound isolates) were collected from patients at the following medical centers in South Africa: Tygerberg Hospital near Cape Town, King Edward VIII Hospital in Durban, Chris Hani Baragwanath Hospital in Soweto and Pretoria Academic Hospital in Pretoria. The strains were provided in response to a request for all strains of Enterobacteriaceae, lacking inducible beta-lactamases, that were intermediate or resistant to cefotaxime or ceftazidime. […] Therefore accurate prevalence data were not obtained.
Antibiotic susceptibility was determined by standard disk diffusion (NCCLS Standard M2-T4, 1994) and agar dilution (NCCLS Standard M7-T2, 1994) procedures. Standard powders of antimicrobial agents were kindly provided by the following companies: piperacillin and tazobactam (Lederle Laboratories, Wayne, N.J.); cefoxitin and imipenem, (Merck, Rathway, N.J.); cefotaxime, (Hoechst-Roussel Pharmaceuticals Inc., Somerville, N.J.); ceftazidime, (Glaxo Group Research Ltd., Greenford, England); aztreonam and cefepime, (Bristol-Myers Squibb, Princeton, N.J.). Disks for agar diffusion were obtained from Becton Dickinson Microbiology Systems (Cockeysville, Md.). For quality control purposes, the following quality control strains were run simultaneously with the test organisms E. coli ATCC 25922, Pseudomonas aeruginosa ATCC 27853, E. coli ATCC 35218, and Staphylococcus aureus ATCC 29213. Throughout this study, results were interpreted using NCCLS criteria for disk diffusion (NCCLS Standard M2-T4, 1994) and broth dilution (NCCLS Standard M7-T2, 1994).

[6] = tested on: E. aerogenes; assay type: cell-based, Enterobacter aerogenes
Protocol: Antibiotic susceptibilities were determined by standard disk-diffusion (NCCLS Standard M2-A6) and agar-dilution (NCCLS Standard M7-A4) procedures. Disks were obtained from Becton Dickinson Microbiology Systems (Cockeysville, Md.). […] Throughout this study, results were interpreted using NCCLS criteria for disk diffusion (NCCLS M2-A6) and broth dilution (NCCLS M7-A4).

[7] = tested on: E. aerogenes; test: Vitek automated susceptibility system; assay type: cell-based, Enterobacter aerogenes; settings: the 31 selected E. aerogenes strains
Description: Among all E. aerogenes recovered from clinical specimens during an eighteen month period (September 1993 to March 1995), thirty-one E. aerogenes strains showing a resistance phenotype different from that observed with derepressed mutants normally encountered at the Hunter Holmes McGuire Medical Center, Richmond, Va. were selected for this study. The strains selected were intermediate to ceftriaxone but resistant to ceftazidime when tested with the Vitek automated susceptibility system (bioMerieux Vitek, St. Louis, Mo.). Derepressed mutants previously isolated from this center were usually resistant to both ceftriaxone and ceftazidime.

[8] = tested on: E. coli C600N transconjugants; test: Susceptibility of transconjugants; assay type: cell-based, Escherichia coli; settings: E. coli C600N transconjugants of E. aerogenes 187, 200, 220, 184
Protocol: Antibiotic susceptibilities were determined by standard disk-diffusion (NCCLS Standard M2-A6) and agar-dilution (NCCLS Standard M7-A4) procedures. Disks were obtained from Becton Dickinson Microbiology Systems (Cockeysville, Md.). Disk-diffusion susceptibilities to the following antibiotics were determined, ampicillin; amoxicillin clavulanic acid; aztreonam; cefazolin; cefoxitin; cefuroxime; cefotaxime; ceftriaxone; ceftazidime; cefepime; imipenem; gentamicin; trimethoprim/sulfamethoxazole and ciprofloxacin. […] The following quality control strains were run simultaneously with the test organisms Escherichia coli ATCC 25922, Pseudomonas aeruginosa ATCC 27853, and E. coli ATCC 35218. Throughout this study, results were interpreted using NCCLS criteria for disk diffusion (NCCLS M2-A6) and broth dilution (NCCLS M7-A4).
[…]. The filter paper mating technique with overnight incubation at 37° C. were performed as described previously (Philippon et al., Antimicrob. Agents Chemother., 33:1131-1136 (1989)). Transconjugants were selected on LB (Luria Bertani) agar [Difco (Detroit, Mich.)] plates containing 12 μg per ml nalidixic acid and 20 μg per ml ampicillin.

[9] = tested on: E. coli HB101 transformant (17 kb plasmid); settings: disk diffusion, Tr (17 kb) = transformant E. coli HB101
[10] = tested on: E. coli C600 transconjugant; settings: disk diffusion, Tc = transconjugate E. coli C600
[11] = tested on: K. pneumoniae 225; settings: test drug disk around amoxicillin-clavulanate disk
[12] = tested on: K. pneumoniae 225; test: Three-dimensional test (enzymatic inactivation of antibiotics); settings: beta-lactamase-mediated hydrolysis by K. pneumoniae 225, lawn E. coli ATCC 25922
[13] = target: single beta-lactamase in K. pneumoniae cell extracts (Escherichia coli, UniProt P62593, E102K/R162S); test: Spectrophotometric hydrolysis assay on crude beta-lactamase extracts; settings: K. pneumoniae Pit 16 extract, beta-lactamase pI 5.6; 100 μM substrate
[14] = target: single beta-lactamase in K. pneumoniae cell extracts (Klebsiella pneumoniae, UniProt P0AD64, E235K/G234S); test: as above; settings: K. pneumoniae Pit 82 extract, beta-lactamase pI 8.2; 100 μM substrate
[15] = target: single beta-lactamase in K. pneumoniae cell extracts (Klebsiella pneumoniae, UniProt P0AD64, G234S); test: as above; settings: K. pneumoniae Pit 100 extract, beta-lactamase pI 7.6; 100 μM substrate
[16] = target: single beta-lactamase in E. coli cell extracts (Escherichia coli, UniProt P62593, E102K/R162S); test: as above; settings: E. coli Pit 64 extract, beta-lactamase pI 5.6; 100 μM substrate
[17] = target: single beta-lactamase in P. mirabilis cell extracts (Escherichia coli, UniProt P62593, E102K/R162S); test: as above; settings: P. mirabilis Pit 85 extract, beta-lactamase pI 5.6; 100 μM substrate

CC(C)(O/N=C(\C(=O)N[C@@H]1C(=O)N2C(C(=O)[O-])=C(C[n+]3ccccc3)CS[C@H]12)c1csc(N)n1)C(=O)O [ceftazidime]
MIC [1]: > 64 µg/mL | Zone Size [2]: 8 mm | MIC range ([3]; resistance phenotype Kpn1, 8 strains): >128 µg/mL | MIC range ([3]; resistance phenotype Kpn2, 28 strains): 4 to 128 µg/mL | MIC range ([3]; resistance phenotype Kpn3 (K. pneumoniae Pit 68), 1 strain, listed as caz): 4 µg/mL | MIC range ([4]; resistance phenotype Ec1, 3 strains): >128 µg/mL | MIC range ([4]; resistance phenotype Ec2, 1 strain): 4 µg/mL | MIC range [5]: 16 to 64 µg/mL | MIC range ([6]; 1 E. aerogenes strain with Bush group 1 and group 2be (SHV-3) enzymes): 4 µg/mL (≈ 7.32 µM) | MIC range ([6]; 1 E. aerogenes strain with Bush group 1 and group 2be (SHV-5) enzymes): 32 µg/mL (≈ 58.5 µM) | MIC range ([6]; 29 E. aerogenes strains with Bush group 1 and group 2be (SHV-4) enzymes): 8 to 32 µg/mL | susceptibility by MIC ([6]; all E. aerogenes strains): decreased susceptibility | Vitek susceptibility result [7]: resistant | susceptibility after transfer of plasmids encoding SHV beta-lactamase genes [8]: decreased susceptibility | Zone Size [9]: 33 mm | Zone Size [10]: 7 mm | clavulanate double-disk potentiation test [11]: positive | three dimensional test [12]: positive | Hydrolysis [13]: 3 nmol of substrate hydrolyzed/m | Hydrolysis [14]: 0.2 nmol of substrate hydrolyzed/m | Hydrolysis [15]: 0.1 nmol of substrate hydrolyzed/m | Hydrolysis [16]: 2 nmol of substrate hydrolyzed/m | Hydrolysis [17]: 1 nmol of substrate hydrolyzed/m
